Data from patent publication US10639345B2, “Compositions for preserving photoreceptor cells, retinal pigment epithelial cells, or visual function” (Massachusetts Eye and Ear Infirmary, priority 2010, dated 2020).
Where a SMILES comes first, the peptide text is derived from it. The star is where a group is joined. Cbz = O=C(OCc1ccccc1)*; CH2F = FC*

Columns and labels:
photoreceptors [1] = test: TEM quantification of photoreceptor death after retinal detachment in WT mice; type: in vivo; details: day three after retinal detachment
Experimental: (§1) TEM was performed as previously described (Hisatomi T et al. (2008). J. CLIN. INVEST. 118:2025-2038). […] Over 200 photoreceptors each eye were photographed and subjected to quantification of cell death modes in a masked fashion. Photoreceptors showing cellular shrinkage and nuclear condensation were defined as apoptotic cells, while photoreceptors associated with cellular and organelle swelling and discontinuities in nuclear and plasma membrane were defined as necrotic cells. The presence of electron-dense granular materials were reported to occur subsequent to both apoptotic and necrotic cell death and cells with these findings were labeled simply as end-stage cell death/unclassified (Hisatomi T et al. (2003) AM. J. PATHOL. 162:1869-1879; Erickson P A et al. (1983) INVEST. OPHTHALMOL. VIS. SCI. 24:927-942).
(§2) The morphology of the RIP-3−/− retina after retinal detachment was also assessed by TEM. […] RIP-3 deficiency inhibits the switch to necrotic cell death by Z-VAD treatment and prevents photoreceptor death after retinal detachment. Scale bar, 5 μm.

photoreceptors [2] = test: TEM quantification of photoreceptor death after retinal detachment in RIP-3−/− mice; type: in vivo; details: day three after retinal detachment
Experimental: as §1, §2

photoreceptors [3] = test: Normalized ONL thickness ratio after retinal detachment in RIP-3−/− mice
Experimental: TUNEL assays were used to measure the amount of apoptotic and necrotic cell death (Grasl-Kraupp et al., HEPTALOGY (1995) 21(5):1465-8). TUNEL and quantification of TUNEL positive cells in ONL were performed as described above by using the ApopTag Fluorescein In Situ Apoptosis Detection Kit (Millipore, Billerica, Mass.). The ratio of the ONL thickness to the thickness of neuroretina in the central area of the detached retina was determined by National Institutes of Health ImageJ software and standardized by that in the attached retina. The data are expressed as normalized ONL thickness ratio [(ONL/neuroretina thickness in detached retina)/(ONL/neuroretina thickness in attached retina)].

## COC(=O)CC(NC(=O)C(C)NC(=O)C(NC(=O)OCc1ccccc1)C(C)C)C(=O)CF (stereo not drawn) [Z-VAD, Benzyloxycarbonyl-Val-Ala-Asp(OMe)-fluoromethylketone] (Cbz-Val-Ala-Asp(OMe)-CH2F; configuration not given here)
Photoreceptors [1]
  % apoptotic cells (TEM): 13.3±1.5%
  % necrotic cells (TEM): 22.1±1.0%
  % unclassified (TEM): 1.0±0.6%
Photoreceptors [2]
  % apoptotic cells (TEM): 4.8±1.3%
  % necrotic cells (TEM): 6.4±1.3%
  % unclassified (TEM): 0.9±0.4%
Photoreceptors [3]; day 3 and 5 after retinal detachment, RIP-3−/− retinas
  ONL thickness ratio: augmented
Photoreceptors [3]; five days after retinal detachment, RIP-3−/− mice
  normalized ONL thickness ratio: 0.841±0.042
